In this test the test system is Tumor Necrosis Factor (TNF). The experiment in a line: Tumor Necrosis Factor (TNF) production (immune stimulation). The note with it: at a concentration of 50 mcg/mL. It counts as cell-based. An excerpt: For example, the polysaccharide PS-I is shown to produce 256 Unit/mL of Tumor Necrosis Factor (TNF) at a concentration of 50 mcg/mL while a mixture of PS-II, PS-III and PS-IV is shown to produce 1000 Unit/mL of TNF at a concentration of 3 mcg/mL.

The text below walks through data of patent US6565897B2, “Extract of nerium species, pharmaceutical composition thereof and methods for preparation thereof” (Ozelle Pharmaceuticals, Inc., priority 1998, dated 2003).

Consider Poly α (1→4) D-Galacturonic Acid [PS-I], for which the “Tumor Necrosis Factor (TNF) produced” value is on record as 256 Unit/mL.
